Source: US10016434B2, “Methods for the treatment of HER2 amplified cancer” (Pharmacyclics LLC, priority 2013, dated 2018)
“Also recorded” adds a separate entry of the source. Where two headings read alike, the source gives them in different places.

How the values were obtained:
[1] = test system: HER2 and HER4 activation in BT-474 cells; test: HER2 and HER4 activation assessed by phosphorylation of downstream targets (FIG. 16); assay type: cell-based; details: BT-474, ibrutinib compared to AVL-292
[2] = molecular target: T1, BTK (Homo sapiens, UniProt Q06187); test: Covalent binding to Btk, DoHH2 cells with PCI-33380 (FIG. 24); details: inhibitors 1 h, then PCI-33380 2 uM 30 min
T1 construct: endogenous in cells; host or cells: DoHH2

[3] = test system: EGFR, HER2, HER4 and downstream targets (MEK, Akt signaling pathway); test: Signaling pathway inhibition (FIGS. 19-21); assay type: cell-based; details: for inhibition of MEK and Akt signaling pathway compared with EGFR and HER2 signaling pathway: FIG. 21
[4] = molecular target: Erb4 (Homo sapiens, UniProt Q15303); test: Kinase activity assay (LabChip platform, Nanosyn)
[5] = test system: BT-474 cells; test: Cell proliferation assay with alamar blue; details: BT-474, 3 days continuous exposure
[6] = molecular target: EGFR (Homo sapiens, UniProt P00533); test: EGFR dialysis assay; assay type: biochemical; details: 10 nM or 100 nM, 1 h pre-incubation, 24 h dialysis
Method: Control samples included: DMSO+5 nM EGFR dialyzed in the identical manner. […] Initial velocity was determined in the samples.

[7] = test system: SK-BR3 cells; test: Cell growth inhibition wash out assay; assay type: cell-based; details: SK-BR3, 1 hour exposure (0.1, 0.25, 0.5 μM), 6 days culture
[8] = molecular target: HER4 (Homo sapiens, UniProt Q15303); test: HER4 dialysis assay; assay type: biochemical; details: 10 nM or 100 nM, 1 h pre-incubation, 24 h dialysis
[9] = test system: BT-474 cells; test: Resistance induced by heregulin; assay type: cell-based; details: BT-474, higher concentration of ibrutinib
[10] = molecular target: LCK (Homo sapiens, UniProt P06239); test: LCK dialysis assay; assay type: biochemical; details: 10 nM or 100 nM, 1 h pre-incubation, 24 h dialysis
Method: Control samples included: DMSO+5 nM LCK dialyzed in the identical manner. […] Initial velocity was determined in the samples.

[11] = test system: MDA-MB-453 cells; test: Resistance induced by heregulin; assay type: cell-based; details: MDA-MB-453, higher concentration of ibrutinib
[12] = test system: ErbB kinases and down-stream signaling pathways; test: Washout experiment, immunoblotting of total and phosphorylated proteins (FIG. 10); assay type: cell-based; details: BT474 and SKBR-3, 0.1 or 0.5 μM, various times, then cultured additional 2 hours
Method: Cells were washed once with cold PBS and lysed in 1× sample buffer (Invitrogen). The whole cell lysate was boiled, sonicated, and then loaded onto a 4-15% gradient SDS-PAGE gel. The proteins were transferred to PVDF membrane. After probing with antibodies, the detection was conducted using an Odyssey […] (Li-Cor). Paired mouse and rabbit antibodies were used to probe the total and corresponding phosphorylated proteins.

[13] = test system: Btk signaling pathways in Mino cells; test: Signaling pathways in B cells (FIG. 23); assay type: cell-based
[14] = test system: MDA-MB-453 cells; test: Cell proliferation assay with alamar blue
[15] = molecular target: ErbB kinases; test: Separate dialysis experiment on kinase inhibition (data not shown); assay type: biochemical
[16] = test system: SK-BR3 cells; test: Cell cycle analysis; assay type: cell-based; details: SK-BR3, 1 h exposure, measured at 24 h
[17] = test system: BT-474 cells; test: Cell cycle analysis; assay type: cell-based; details: BT-474, 1 h exposure, measured at 24 h
[18] = test system: HER signaling pathway; test: One hour treatment followed by washout, signaling pathways (FIG. 33); assay type: cell-based
[19] = molecular target: JAK3 (Homo sapiens, UniProt P52333); test: Kinase activity assay (LabChip platform, Nanosyn); assay type: biochemical; details: recombinant enzyme 5 nM, substrate 1 μM
[20] = molecular target: ErB2 (Homo sapiens, UniProt P04626); test: Kinase activity assay (LabChip platform, Nanosyn); details: recombinant enzyme 5 nM, substrate 1 μM
[21] = test system: aldehyde dehydrogenase (ALDH) in BT-474 cells; test: Aldefluor assay
[22] = molecular target: TXK (Homo sapiens, UniProt P42681); test: Kinase activity assay (LabChip platform, Nanosyn); assay type: biochemical; details: recombinant enzyme 5 nM, substrate 1 μM
[23] = molecular target: TEC (Homo sapiens, UniProt P42680); test: Kinase activity assay (LabChip platform, Nanosyn); assay type: biochemical; details: recombinant enzyme 5 nM, substrate 1 μM
[24] = test system: BT-474 cells; test: Tumorsphere culture; assay type: cell-based; details: BT-474, 1 hour treatment, wash out, seven days culture
[25] = molecular target: EGFR (ErbB1) (Homo sapiens, UniProt P00533); test: Kinase activity assay (LabChip platform, Nanosyn); details: recombinant enzyme 5 nM, substrate 1 μM
[26] = molecular target: BLK (Homo sapiens, UniProt P51451); test: Kinase activity assay (LabChip platform, Nanosyn); assay type: biochemical; details: recombinant enzyme 5 nM, substrate 1 μM
[27] = test system: BT-474 cells; test: Cell growth inhibition wash out assay; assay type: cell-based; details: BT-474, 1 hour exposure (0.1, 0.25, 0.5 μM), 6 days culture
[28] = test system: SK-BR3 cells; test: Cell proliferation assay with alamar blue; details: SK-BR3, 3 days continuous exposure
[29] = test system: MDA-MB-453 xenograft; test: Mouse MDA-MB-453 xenograft; assay type: in vivo
[30] = test system: UACC-893 cells; test: Cell proliferation assay with alamar blue; assay type: cell-based; details: UACC-893, 3 days continuous exposure
[31] = test system: BT-474 cells; test: Apoptosis assay (annexin-V / sub G0); assay type: cell-based
[32] = molecular target: ITK (Homo sapiens, UniProt Q08881); test: Kinase activity assay (LabChip platform, Nanosyn); assay type: biochemical; details: recombinant enzyme 5 nM, substrate 1 μM

T1 sequence (Q06187 whole entry): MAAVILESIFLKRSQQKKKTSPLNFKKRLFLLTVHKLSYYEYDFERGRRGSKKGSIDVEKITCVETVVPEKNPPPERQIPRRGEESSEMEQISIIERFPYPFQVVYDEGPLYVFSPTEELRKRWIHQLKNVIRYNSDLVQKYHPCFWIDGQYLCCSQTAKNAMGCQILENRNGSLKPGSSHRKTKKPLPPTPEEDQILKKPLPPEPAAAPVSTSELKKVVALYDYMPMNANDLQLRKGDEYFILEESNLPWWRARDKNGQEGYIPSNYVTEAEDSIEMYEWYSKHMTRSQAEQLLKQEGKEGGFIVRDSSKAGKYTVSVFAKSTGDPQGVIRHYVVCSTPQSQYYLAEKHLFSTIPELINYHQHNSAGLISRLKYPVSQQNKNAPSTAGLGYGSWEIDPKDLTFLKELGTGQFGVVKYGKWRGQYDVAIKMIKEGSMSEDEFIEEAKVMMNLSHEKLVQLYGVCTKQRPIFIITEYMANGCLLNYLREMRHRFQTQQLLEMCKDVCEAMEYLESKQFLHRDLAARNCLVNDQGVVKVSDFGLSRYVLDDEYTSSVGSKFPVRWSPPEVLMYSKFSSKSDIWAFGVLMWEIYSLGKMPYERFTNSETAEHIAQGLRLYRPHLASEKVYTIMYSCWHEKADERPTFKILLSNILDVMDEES
Sequence of Erb4 (Q15303 26-1292 isoform Q15303-3 limits assumed): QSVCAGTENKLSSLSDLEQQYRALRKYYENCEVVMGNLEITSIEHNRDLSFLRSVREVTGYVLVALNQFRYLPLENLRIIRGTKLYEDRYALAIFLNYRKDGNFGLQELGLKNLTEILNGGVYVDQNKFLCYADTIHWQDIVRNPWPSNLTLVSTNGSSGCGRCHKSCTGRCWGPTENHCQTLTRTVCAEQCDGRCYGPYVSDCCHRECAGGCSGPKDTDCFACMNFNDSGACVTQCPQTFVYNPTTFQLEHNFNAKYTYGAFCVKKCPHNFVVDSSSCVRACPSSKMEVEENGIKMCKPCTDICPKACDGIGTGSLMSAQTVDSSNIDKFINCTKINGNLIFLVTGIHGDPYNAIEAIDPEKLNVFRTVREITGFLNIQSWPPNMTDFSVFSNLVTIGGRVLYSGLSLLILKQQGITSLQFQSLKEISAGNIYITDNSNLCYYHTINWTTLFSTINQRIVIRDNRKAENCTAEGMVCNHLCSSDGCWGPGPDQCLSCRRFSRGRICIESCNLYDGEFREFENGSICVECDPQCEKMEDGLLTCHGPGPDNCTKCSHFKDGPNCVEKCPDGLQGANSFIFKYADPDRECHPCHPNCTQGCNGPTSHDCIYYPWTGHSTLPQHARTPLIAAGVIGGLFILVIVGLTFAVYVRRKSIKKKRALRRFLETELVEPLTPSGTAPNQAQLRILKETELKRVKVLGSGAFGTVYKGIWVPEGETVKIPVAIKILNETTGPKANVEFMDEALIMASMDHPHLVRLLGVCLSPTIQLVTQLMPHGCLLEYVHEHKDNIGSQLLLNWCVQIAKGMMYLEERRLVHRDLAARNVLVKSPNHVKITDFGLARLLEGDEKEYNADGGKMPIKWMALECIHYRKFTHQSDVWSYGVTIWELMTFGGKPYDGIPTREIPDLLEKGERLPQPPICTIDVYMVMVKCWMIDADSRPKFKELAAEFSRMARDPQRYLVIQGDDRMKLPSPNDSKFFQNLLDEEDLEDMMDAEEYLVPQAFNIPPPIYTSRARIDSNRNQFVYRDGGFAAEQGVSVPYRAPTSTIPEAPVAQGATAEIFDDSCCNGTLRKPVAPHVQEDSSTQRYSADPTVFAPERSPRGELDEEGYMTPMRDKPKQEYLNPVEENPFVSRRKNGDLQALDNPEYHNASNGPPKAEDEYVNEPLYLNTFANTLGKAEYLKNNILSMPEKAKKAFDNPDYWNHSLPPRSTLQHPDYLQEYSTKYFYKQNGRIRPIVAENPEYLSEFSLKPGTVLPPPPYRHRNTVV
Sequence of ErB2 (P04626 23-1255): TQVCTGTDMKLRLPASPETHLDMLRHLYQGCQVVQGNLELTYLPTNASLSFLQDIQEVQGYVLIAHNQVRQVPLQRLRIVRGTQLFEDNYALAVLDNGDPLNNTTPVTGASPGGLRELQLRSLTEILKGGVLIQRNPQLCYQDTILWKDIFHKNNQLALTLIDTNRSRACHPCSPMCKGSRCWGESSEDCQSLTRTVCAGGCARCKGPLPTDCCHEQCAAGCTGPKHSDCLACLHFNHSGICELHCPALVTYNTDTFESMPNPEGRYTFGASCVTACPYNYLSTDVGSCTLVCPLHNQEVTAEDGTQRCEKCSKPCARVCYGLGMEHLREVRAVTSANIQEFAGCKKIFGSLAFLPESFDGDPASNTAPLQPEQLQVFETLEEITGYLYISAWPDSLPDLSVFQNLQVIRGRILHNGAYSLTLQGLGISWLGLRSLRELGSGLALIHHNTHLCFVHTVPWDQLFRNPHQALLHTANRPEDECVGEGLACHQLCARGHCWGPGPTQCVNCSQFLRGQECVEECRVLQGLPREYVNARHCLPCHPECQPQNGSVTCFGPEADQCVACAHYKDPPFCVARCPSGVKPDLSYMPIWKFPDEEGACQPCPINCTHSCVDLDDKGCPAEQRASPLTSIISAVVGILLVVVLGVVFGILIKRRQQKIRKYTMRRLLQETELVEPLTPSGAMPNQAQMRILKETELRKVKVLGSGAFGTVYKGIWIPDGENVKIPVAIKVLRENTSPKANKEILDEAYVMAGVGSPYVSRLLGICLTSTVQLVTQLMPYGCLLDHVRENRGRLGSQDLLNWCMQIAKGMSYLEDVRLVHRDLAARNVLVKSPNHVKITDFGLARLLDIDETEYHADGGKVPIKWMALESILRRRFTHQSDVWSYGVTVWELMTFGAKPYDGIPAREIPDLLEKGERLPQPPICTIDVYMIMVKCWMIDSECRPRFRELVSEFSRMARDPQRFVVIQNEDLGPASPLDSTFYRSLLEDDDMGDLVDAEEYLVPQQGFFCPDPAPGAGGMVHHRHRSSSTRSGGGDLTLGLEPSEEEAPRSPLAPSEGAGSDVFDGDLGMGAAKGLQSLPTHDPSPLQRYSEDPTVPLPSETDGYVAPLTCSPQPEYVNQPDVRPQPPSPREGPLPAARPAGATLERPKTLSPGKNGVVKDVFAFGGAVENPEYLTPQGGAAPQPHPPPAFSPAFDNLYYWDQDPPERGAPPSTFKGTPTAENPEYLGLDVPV
Sequence of LCK (P06239 whole entry, species assumed): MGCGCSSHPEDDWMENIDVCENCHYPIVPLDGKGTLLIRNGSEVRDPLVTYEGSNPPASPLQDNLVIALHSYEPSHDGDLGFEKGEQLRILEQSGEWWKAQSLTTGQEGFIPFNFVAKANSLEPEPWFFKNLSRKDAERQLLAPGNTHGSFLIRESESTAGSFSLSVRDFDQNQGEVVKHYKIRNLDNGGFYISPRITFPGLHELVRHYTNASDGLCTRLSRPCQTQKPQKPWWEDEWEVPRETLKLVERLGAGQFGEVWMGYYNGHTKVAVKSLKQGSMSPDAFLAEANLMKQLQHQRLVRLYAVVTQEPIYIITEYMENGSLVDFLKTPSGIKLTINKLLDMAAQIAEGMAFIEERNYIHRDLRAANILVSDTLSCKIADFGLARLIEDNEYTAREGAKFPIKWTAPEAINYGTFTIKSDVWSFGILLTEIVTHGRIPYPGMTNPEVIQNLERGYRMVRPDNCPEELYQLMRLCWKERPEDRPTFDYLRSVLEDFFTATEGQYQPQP
Sequence of EGFR (ErbB1) (P00533 25-1210): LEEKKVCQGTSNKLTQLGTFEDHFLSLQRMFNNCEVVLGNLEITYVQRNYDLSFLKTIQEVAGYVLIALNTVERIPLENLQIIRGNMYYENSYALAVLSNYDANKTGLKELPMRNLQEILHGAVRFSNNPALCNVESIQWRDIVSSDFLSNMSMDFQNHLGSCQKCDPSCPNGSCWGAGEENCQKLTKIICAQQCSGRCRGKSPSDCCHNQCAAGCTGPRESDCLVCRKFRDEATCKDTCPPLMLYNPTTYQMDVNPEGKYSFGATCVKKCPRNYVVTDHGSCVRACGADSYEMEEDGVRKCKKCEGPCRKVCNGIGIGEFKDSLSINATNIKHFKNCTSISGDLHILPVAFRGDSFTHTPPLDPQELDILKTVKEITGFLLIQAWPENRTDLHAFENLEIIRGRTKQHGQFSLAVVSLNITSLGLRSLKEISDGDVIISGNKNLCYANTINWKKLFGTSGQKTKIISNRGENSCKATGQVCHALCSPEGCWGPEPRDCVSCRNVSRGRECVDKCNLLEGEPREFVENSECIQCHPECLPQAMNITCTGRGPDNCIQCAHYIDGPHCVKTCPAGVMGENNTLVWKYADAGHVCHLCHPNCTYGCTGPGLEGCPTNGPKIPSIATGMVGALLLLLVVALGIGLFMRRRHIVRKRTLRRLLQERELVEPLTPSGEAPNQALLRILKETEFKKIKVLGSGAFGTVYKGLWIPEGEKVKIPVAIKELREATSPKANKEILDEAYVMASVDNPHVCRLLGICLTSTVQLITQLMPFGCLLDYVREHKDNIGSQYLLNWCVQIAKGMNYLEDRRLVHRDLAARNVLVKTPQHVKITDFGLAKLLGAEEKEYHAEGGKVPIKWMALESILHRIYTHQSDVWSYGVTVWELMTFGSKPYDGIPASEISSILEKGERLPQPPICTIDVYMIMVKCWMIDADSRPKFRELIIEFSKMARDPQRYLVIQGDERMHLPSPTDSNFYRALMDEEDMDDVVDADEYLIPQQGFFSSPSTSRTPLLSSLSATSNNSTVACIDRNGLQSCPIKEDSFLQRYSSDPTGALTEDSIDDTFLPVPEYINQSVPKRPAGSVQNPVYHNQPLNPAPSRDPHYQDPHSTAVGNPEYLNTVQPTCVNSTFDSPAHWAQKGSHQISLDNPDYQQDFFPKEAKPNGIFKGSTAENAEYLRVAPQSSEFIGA
Sequence of HER4 (Q15303 26-1292 isoform Q15303-3 limits assumed): as the sequence (Q15303 26-1292 isoform Q15303-3 limits assumed) above

## C=CC(=O)Nc1cccc(Nc2nc(Nc3ccc(OCCOC)cc3)ncc2F)c1 [AVL-292, reference compound]
[1]
  inhibition of HER2 and HER4 activation (phosphorylation of downstream targets, such as AKT): only ibrutinib inhibited

## COc1cc2ncnc(Nc3ccc(F)c(Cl)c3)c2cc1NC(=O)/C=C/CN1CCCCC1 [dacomitinib, reference compound]
[2]
  covalent binding to Btk: did not
[3]; FIG. 20
  inhibition of EGFR and downstream targets: less effective

## COc1cc2ncnc(Nc3ccc(F)c(Cl)c3)c2cc1OCCCN1CCOCC1 [gefitinib, reference compound]
[4]; stated without source
  HER4 inhibitory activity compared to ibrutinib: lower HER2/4 inhibitory activity

## C=CC(=O)N1CCC[C@@H](n2nc(-c3ccc(Oc4ccccc4)cc3)c3c(N)ncnc32)C1 [ibrutinib, (R)-1-(3-(4-amino-3-(4-phenoxyphenyl)-1H-pyrazolo[3,4-d]pyrimidin-1-yl)piperidin-1-yl)prop-2-en-1-one]
[5]
  growth inhibitory effect: sensitive to the growth inhibitory effect; also recorded: confirmed ibrutinib inhibitory activity
[6]
  reversibility of EGFR inhibition after dialysis: irreversible inhibition
[6]; listed as Ibrutinib
  reversibility of EGFR inhibition after dialysis: irreversibly inhibits
[7]
  growth inhibitory effect after wash out: sustained and was dose dependent
[8]
  reversibility of HER4 inhibition after dialysis: irreversible inhibition
[8]; listed as Ibrutinib
  reversibility of HER4 inhibition after dialysis: irreversibly inhibits
[9]
  overcoming resistance induced by heregulin: able to overcome resistance induced by heregulin
[10]
  reversibility of LCK inhibition after dialysis: reversible inhibition
[10]; listed as Ibrutinib
  reversibility of LCK inhibition after dialysis: reversibly inhibits
[11]
  overcoming resistance induced by heregulin: able to overcome resistance induced by heregulin
[12]
  inhibition of ErbB kinases and down-stream signaling pathways after washout: persisted after ibrutinib washout, and was time and concentration dependent
[13]
  inhibitory effect on Btk signaling pathways in B cells: selective inhibitory effect
[13]; listed as Ibrutinib
  inhibitory effect on Btk signaling pathways in B cells: selectively inhibits
[14]; MDA-MB-453, 3 days continuous exposure
  growth inhibitory effect: sensitive to the growth inhibitory effect; also recorded: confirmed ibrutinib inhibitory activity
[14]; MDA-MB-453, fluorescence-based assay
  inhibition of cell growth compared to gefitinib: more potent than gefitinib
[15]
  kinase inhibition after dialysis: dialysis resistant
[16]
  cell cycle effect: G1 arrest
[17]
  cell cycle effect: G1 arrest
[18]; day 6
  inhibitory effect on HER signaling pathway after washout: lasting inhibitory effect even after day 6
[18]; day 6, listed as Ibrutinib
  inhibitory effect on HER signaling pathway after washout: long-lasting inhibitory effect even after day 6
[19]
  inhibition of JAK3: able to inhibit
[20]
  inhibition of ErB2: able to inhibit; also recorded: effective in inhibiting
[21]; BT-474, one hour or continuous treatment
  putative stem-like subpopulation of breast cancer cells: decreased
[21]; BT-474, short exposures to high concentrations or continuous exposure to low concentration
  aldehyde dehydrogenase activity: decreased aldehyde dehydrogenase activity
[22]
  inhibition of TXK: able to inhibit
[3]; FIG. 19B
  IC50 toward EGFR compared with HER2 and HER4: higher IC50
[3]
  inhibition of MEK and Akt signaling pathway compared with EGFR and HER2 signaling pathway: more potent inhibitor of MEK and Akt pathways than the EGFR and HER2 pathways
[3]; listed as Ibrutinib
  inhibition of MEK and Akt signaling pathway compared with EGFR and HER2 signaling pathway: potent inhibitor of the MEK and Akt signaling pathway than of the EGFR and HER2 signaling pathway
[23]
  inhibition of TEC: able to inhibit
[24]
  tumorsphere growth (size): inhibited tumorsphere growth
  tumorsphere number: without affecting tumorsphere number
[25]
  inhibition of EGFR (ErbB1): able to inhibit; also recorded: effective in inhibiting
[1]
  inhibition of HER2 and HER4 activation (phosphorylation of downstream targets, such as AKT): only ibrutinib inhibited HER2 and HER4 activation
[26]
  inhibition of BLK: able to inhibit
[4]; recombinant enzyme 5 nM, substrate 1 μM
  inhibition of Erb4: able to inhibit; also recorded: effective in inhibiting
[27]
  growth inhibitory effect after wash out: sustained and was dose dependent
[28]
  growth inhibitory effect: sensitive to the growth inhibitory effect; also recorded: confirmed ibrutinib inhibitory activity
[29]
  solid tumor growth (tumor volume): inhibited solid tumor growth
[30]
  growth inhibitory effect: sensitive to the growth inhibitory effect
[31]; BT-474, continuous treatment 3-day, with or without caspase inhibitor Q-VD-OPH
  apoptosis (annexin-V positivity or sub G0): dramatic apoptosis which was caspase-dependent
[31]; BT-474, one hour treatment, 6 days after the exposure
  apoptosis (cells in sub G0): low level of apoptosis
[32]
  inhibition of ITK: able to inhibit

## CS(=O)(=O)CCNCc1ccc(-c2ccc3ncnc(Nc4ccc(OCc5cccc(F)c5)c(Cl)c4)c3c2)o1 [lapatinib]
[2]
  covalent binding to Btk: did not

## CCOc1cc2ncc(C#N)c(Nc3ccc(OCc4ccccn4)c(Cl)c3)c2cc1NC(=O)/C=C/CN(C)C [neratinib]
[2]
  covalent binding to Btk: did not
